From patent US12581252B2, “Substituted pyrrolo[3,4-b]pyridines as PI3K-α inhibitors” (Relay Therapeutics, Inc., priority 2020, dated 2026)

How the values were obtained:
H1047R PIK3CA enzyme = H1047R PIK3CA enzyme (Homo sapiens, UniProt P42336, H1047R); assay: ADP-Glo Biochemical PIK3CA Kinase Assay
cells = conditions: Homo sapiens, MCF-10A, read-out: MCF10A IC50

Chain of H1047R PIK3CA enzyme (P42336 whole entry H1047R): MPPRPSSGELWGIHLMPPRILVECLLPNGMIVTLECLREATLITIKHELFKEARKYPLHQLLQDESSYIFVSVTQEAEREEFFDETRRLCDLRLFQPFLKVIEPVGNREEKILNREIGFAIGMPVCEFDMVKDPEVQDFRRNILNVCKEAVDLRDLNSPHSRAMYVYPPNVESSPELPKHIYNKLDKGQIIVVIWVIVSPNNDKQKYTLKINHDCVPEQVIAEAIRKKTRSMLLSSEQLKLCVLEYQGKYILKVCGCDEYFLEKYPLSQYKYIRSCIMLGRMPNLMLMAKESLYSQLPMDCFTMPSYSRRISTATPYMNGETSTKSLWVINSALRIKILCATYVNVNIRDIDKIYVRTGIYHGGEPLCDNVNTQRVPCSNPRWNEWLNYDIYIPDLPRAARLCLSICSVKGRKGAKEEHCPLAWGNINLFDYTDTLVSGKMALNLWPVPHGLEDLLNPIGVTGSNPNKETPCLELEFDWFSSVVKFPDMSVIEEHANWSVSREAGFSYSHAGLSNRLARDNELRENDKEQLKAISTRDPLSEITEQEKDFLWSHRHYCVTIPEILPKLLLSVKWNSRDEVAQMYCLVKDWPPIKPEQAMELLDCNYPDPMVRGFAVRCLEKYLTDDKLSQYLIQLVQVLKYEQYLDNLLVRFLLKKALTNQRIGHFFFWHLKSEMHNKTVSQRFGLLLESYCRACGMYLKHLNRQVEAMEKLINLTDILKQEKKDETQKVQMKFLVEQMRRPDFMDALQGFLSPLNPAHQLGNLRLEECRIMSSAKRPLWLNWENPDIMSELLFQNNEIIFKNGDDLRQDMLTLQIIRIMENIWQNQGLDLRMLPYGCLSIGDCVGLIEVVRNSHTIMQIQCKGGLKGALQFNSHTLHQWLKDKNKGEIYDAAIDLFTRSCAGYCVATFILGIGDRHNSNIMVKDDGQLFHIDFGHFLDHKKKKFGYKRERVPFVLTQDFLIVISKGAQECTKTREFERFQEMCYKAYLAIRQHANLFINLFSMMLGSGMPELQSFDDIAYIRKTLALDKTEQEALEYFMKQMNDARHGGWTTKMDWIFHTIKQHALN
Chain of H1047R PIK3CA enzyme (P27986 whole entry partner): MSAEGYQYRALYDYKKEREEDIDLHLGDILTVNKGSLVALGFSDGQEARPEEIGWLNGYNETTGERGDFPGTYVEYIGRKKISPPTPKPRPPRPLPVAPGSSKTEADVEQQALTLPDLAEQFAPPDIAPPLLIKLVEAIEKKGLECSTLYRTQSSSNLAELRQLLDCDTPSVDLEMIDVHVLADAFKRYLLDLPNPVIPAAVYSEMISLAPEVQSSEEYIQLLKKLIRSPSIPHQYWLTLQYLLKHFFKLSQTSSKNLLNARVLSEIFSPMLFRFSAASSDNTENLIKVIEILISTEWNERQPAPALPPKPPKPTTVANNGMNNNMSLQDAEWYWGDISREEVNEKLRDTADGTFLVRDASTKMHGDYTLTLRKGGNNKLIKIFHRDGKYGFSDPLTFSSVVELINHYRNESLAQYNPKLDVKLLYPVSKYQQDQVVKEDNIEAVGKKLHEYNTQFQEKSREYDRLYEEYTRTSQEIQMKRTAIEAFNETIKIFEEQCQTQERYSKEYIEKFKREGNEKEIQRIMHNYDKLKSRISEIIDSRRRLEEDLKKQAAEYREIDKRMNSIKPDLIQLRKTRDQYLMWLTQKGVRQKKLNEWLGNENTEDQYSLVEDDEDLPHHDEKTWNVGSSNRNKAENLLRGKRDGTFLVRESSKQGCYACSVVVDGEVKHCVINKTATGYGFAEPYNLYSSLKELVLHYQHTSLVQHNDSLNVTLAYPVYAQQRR

SMILES	IC50 (H1047R PIK3CA enzyme)	IC50 (cells)
O=C(Nc1cc(-n2ccnc2)cc2c1C(c1cc(F)ccc1Cl)NC2=O)c1cc(F)cc(C(F)(F)F)c1 (centres unmarked) [Compound I-1015]	≤ 100 nM	< 1000 nM
Cc1ccccc1C1NC(=O)c2cccc(NC(=O)c3csc4ccccc34)c21 (centres unmarked) [Compound I-1, N-(1-Oxo-3-(o-tolyl)isoindolin-4-yl)benzo[b]thiophene-3-carboxamide]	100 to 500 nM	1000 to 5000 nM
N#CCN1CC(c2cc(NC(=O)c3cc(F)cc(C(F)(F)F)c3)c3c(c2)C(=O)NC3c2cc(F)ccc2Cl)C1 (centres unmarked) [Compound I-1158]	≤ 100 nM	< 1000 nM
Cc1nocc1Nc1cc(NC(=O)c2cc(F)cc(C(F)(F)F)c2)c2c(c1)C(=O)NC2c1cc(F)ccc1Cl (centres unmarked) [Compound I-856]	≤ 100 nM	< 1000 nM
O=C(Nc1cc(-c2cc3cccnc3[nH]2)cc2c1C(c1cc(F)ccc1Cl)NC2=O)c1cc(F)cc(C(F)(F)F)c1 (centres unmarked) [Compound I-972]	≤ 100 nM	< 1000 nM
O=C(Nc1cc(-c2n[nH]c3cccnc23)cc2c1C(c1cc(F)ccc1Cl)NC2=O)c1cc(F)cc(C(F)(F)F)c1 (centres unmarked) [Compound I-936]	≤ 100 nM	< 1000 nM
O=C(Nc1cc(-c2cscn2)cc2c1[C@H](c1cc(F)ccc1Cl)NC2=O)c1cc(F)cc(C(F)(F)F)c1 [Compound I-1084]	≤ 100 nM	< 1000 nM
Cc1ccccc1C1NC(=O)c2cc(N)cc(NC(=O)c3nsc4ccccc34)c21 (centres unmarked) [Compound I-50, N-[6-Amino-3-(2-methylphenyl)-1-oxo-2,3-dihydro-1H-isoindol-4-yl]-1,2-benzothiazole-3-carboxamide]	≤ 100 nM	< 1000 nM
O=C(Nc1cc(-c2cnc3ccnn3c2)cc2c1C(c1cc(F)ccc1Cl)NC2=O)c1cc(F)cc(C(F)(F)F)c1 (centres unmarked) [Compound I-1047]	≤ 100 nM	< 1000 nM
N#CC1(COc2cc(NC(=O)N3CC(O)c4cc(F)ccc43)c3c(c2)C(=O)NC3c2cc(F)ccc2Cl)CC1 (mixture of isomers) [Compound I-2489]	≤ 100 nM	5000 to 10000 nM
O=C(Nc1cc(-c2cnc3nccn3c2)cc2c1[C@H](c1cc(F)ccc1Cl)NC2=O)c1cc(F)cc(C(F)(F)F)c1 [Compound I-884]	≤ 100 nM	< 1000 nM
O=C(Nc1cc(-c2ccc3ncnn3c2)cc2c1C(c1cc(F)ccc1C(F)F)NC2=O)c1cc(F)cc(C(F)(F)F)c1 (centres unmarked) [Compound I-1057]	≤ 100 nM	< 1000 nM
O=C(Nc1cc(OCCO)cc2c1C(c1cc(F)ccc1Cl)NC2=O)c1cc(F)cc(C(F)(F)F)c1 (centres unmarked) [Compound I-1064]	≤ 100 nM	< 1000 nM
O=C1N[C@H](c2cc(F)ccc2Cl)c2c(NC(=O)N3C[C@H](C(F)F)c4ccccc43)cccc21 (single isomer, unassigned) [Compound I-2333]	≤ 100 nM	1000 to 5000 nM
O=C(Nc1cc(NC2=NC(C(F)(F)F)CO2)cc2c1C(c1cc(F)ccc1Cl)NC2=O)c1cc(F)cc(C(F)(F)F)c1 (centres unmarked) [Compound I-2360]	≤ 100 nM	5000 to 10000 nM
N#Cc1cc(NC(=O)N2C[C@](O)(C(F)(F)F)c3cc(F)ccc32)c2c(c1)C(=O)N[C@@H]2c1cc(F)ccc1Cl (single isomer, unassigned) [Compound I-2562]	≤ 100 nM	< 1000 nM
O=C(Nc1cc(-c2ncco2)cc2c1C(c1cc(F)ccc1Cl)NC2=O)c1cc(F)cc(C(F)(F)F)c1 (centres unmarked) [Compound I-915]	≤ 100 nM	< 1000 nM
O=C(Nc1cc(-c2cscn2)cc2c1C(c1cc(F)ccc1Cl)NC2=O)c1cc(F)cc(C(F)(F)F)c1 (centres unmarked) [Compound I-920]	≤ 100 nM	< 1000 nM
CC(C)(C#N)n1cc(-c2cc(NC(=O)N3C[C@@](O)(C(F)(F)F)c4cc(F)ccc43)c3c(c2)C(=O)N[C@@H]3c2cc(F)ccc2Cl)cn1 (single isomer, unassigned) [Compound I-2613]	≤ 100 nM	< 1000 nM
O=C1N[C@@H](c2cccc(F)c2F)c2c(NC(=O)c3csc4ccccc34)ccnc21 [Compound I-22]	500 to 1000 nM	1000 to 5000 nM
Cn1nc(-c2cc(NC(=O)c3cc(F)cc(C(F)(F)F)c3)c3c(c2)C(=O)NC3c2cc(F)ccc2Cl)ccc1=O (centres unmarked) [Compound I-1076]	≤ 100 nM	< 1000 nM
O=C(Nc1cc(-c2cnoc2)cc2c1C(c1cc(F)ccc1Cl)NC2=O)c1cc(F)cc(C(F)(F)F)c1 (centres unmarked) [Compound I-935]	≤ 100 nM	< 1000 nM
O=C(Nc1cc(-c2cccnc2)cc2c1[C@@H](c1cc(F)ccc1Cl)NC2=O)c1cc(F)cc(C(F)(F)F)c1 (stereo in doubt) [Compound I-1009]	≤ 100 nM	< 1000 nM
Cn1cc(Nc2cc(NC(=O)c3cc(F)cc(C(F)(F)F)c3)c3c(c2)C(=O)NC3c2cc(F)ccc2Cl)nn1 (centres unmarked) [Compound I-965]	≤ 100 nM	< 1000 nM
CNC(=O)c1cc(NC(=O)c2csc3ccccc23)c2c(c1)C(=O)NC2c1ccccc1C (racemic) [Compound I-6, 7-(Benzo[b]thiophene-3-carboxamido)-N-methyl-3-oxo-1-(o-tolyl)isoindoline-5-carboxamide]	≤ 100 nM	< 1000 nM

SMILES	IC50 (H1047R PIK3CA enzyme)	IC50 (cells)
N#CC1(CNc2cc(NC(=O)c3cc(F)cc(C(F)(F)F)c3)c3c(c2)C(=O)N[C@H]3c2cc(F)ccc2Cl)CC1 [Compound I-868]	≤ 100 nM	< 1000 nM
O=C1N[C@H](c2cc(F)ccc2Cl)c2c(NC(=O)N3C[C@@](O)(C(F)(F)F)c4cc(F)ccc43)cc(Cl)nc21 (single isomer, unassigned) [Compound I-2703]	≤ 100 nM	< 1000 nM
O=C1NC(c2cc(F)ccc2Cl)c2c(NC(=O)N3CC(C(F)F)c4ccccc43)cccc21 (mixture of isomers) [Compound I-2246]	≤ 100 nM	1000 to 5000 nM
O=C(Nc1cc(Nc2nc3ccccc3[nH]2)cc2c1C(c1cc(F)ccc1Cl)NC2=O)c1cc(F)cc(C(F)(F)F)c1 (centres unmarked) [Compound I-993]	≤ 100 nM	1000 to 5000 nM
O=C1NC(c2ccccc2C(F)F)c2c(NC(=O)c3nsc4ccccc34)cccc21 (centres unmarked) [Compound I-122]	≤ 100 nM	1000 to 5000 nM
O=C(Nc1cc(-c2ccc3ncnn3c2)cc2c1[C@H](c1cc(F)cc(F)c1Cl)NC2=O)c1cc(F)cc(C(F)(F)F)c1 (stereo in doubt) [Compound I-1062]	≤ 100 nM	< 1000 nM
CC(O)c1cc(NC(=O)N2CC(O)c3ccccc32)c2c(c1)C(=O)NC2c1cc(F)ccc1Cl (centres unmarked) [Compound I-2288]	≤ 100 nM	10000 to 36000 nM
Cn1cc(Nc2cc(NC(=O)c3cc(F)cc(C(F)(F)F)c3)c3c(c2)C(=O)NC3c2cc(F)ccc2Cl)cn1 (centres unmarked) [Compound I-917]	≤ 100 nM	< 1000 nM
Cn1cc(-c2cc(NC(=O)c3cc(F)cc(C(F)(F)F)c3)c3c(c2)C(=O)NC3c2cc(F)ccc2Cl)ncc1=O (centres unmarked) [Compound I-1016]	≤ 100 nM	< 1000 nM
O=C(Nc1cc(NC2COC2)cc2c1[C@H](c1cc(F)ccc1Cl)NC2=O)c1cc(F)cc(C(F)(F)F)c1 [Compound I-814]	≤ 100 nM	< 1000 nM
COCc1cc(NC(=O)N2C[C@@](O)(C(F)(F)F)c3cc(F)ccc32)c2c(c1)C(=O)N[C@@H]2c1cc(F)ccc1Cl (single isomer, unassigned) [Compound I-2541]	≤ 100 nM	< 1000 nM
N#CCc1cc(NC(=O)N2CC(O)(C(F)(F)F)c3cc(F)ccc32)c2c(c1)C(=O)NC2c1cc(F)ccc1Cl (mixture of isomers) [Compound I-2596]	≤ 100 nM	< 1000 nM
Cc1ccccc1C1NC(=O)c2cc(CS(C)(=O)=O)cc(NC(=O)c3nsc4ccccc34)c21 (centres unmarked) [Compound I-202, N-(6-((Methylsulfonyl)methyl)-1-oxo-3-(o-tolyl)isoindolin-4-yl)benzo[d]isothiazole-3-carboxamide]	≤ 100 nM	< 1000 nM
Cn1ccnc1Nc1cc(NC(=O)c2cc(F)cc(C(F)(F)F)c2)c2c(c1)C(=O)NC2c1cc(F)ccc1Cl (centres unmarked) [Compound I-1075]	≤ 100 nM	< 1000 nM
O=C(Nc1cc(-c2n[nH]c3ncccc23)cc2c1C(c1cc(F)ccc1Cl)NC2=O)c1cc(F)cc(C(F)(F)F)c1 (centres unmarked) [Compound I-939]	≤ 100 nM	< 1000 nM
Nc1cc(NC(=O)N2C[C@@H](O)c3ccccc32)c2c(c1)C(=O)N[C@H]2c1cc(F)ccc1Cl (single isomer, unassigned) [Compound I-2133]	≤ 100 nM	< 1000 nM
Cc1noc2ncc(-c3cc(NC(=O)c4cc(F)cc(C(F)(F)F)c4)c4c(c3)C(=O)NC4c3cc(F)ccc3Cl)cc12 (centres unmarked) [Compound I-1039]	≤ 100 nM	< 1000 nM
[2H][C@@]1(c2cc(F)ccc2Cl)NC(=O)c2cccc(NC(=O)N3C[C@@](O)(C(F)(F)F)c4cc(F)ccc43)c21 (single isomer, unassigned) [Compound I-2682]	≤ 100 nM	< 1000 nM
C=Cc1cc(NC(=O)c2csc3ccccc23)c2c(c1)C(=O)NC2c1ccccc1C (centres unmarked) [Compound I-100, N-[6-Ethenyl-3-(2-methylphenyl)-1-oxo-2,3-dihydro-1H-isoindol-4-yl]-1-benzothiophene-3-carboxamide]	≤ 100 nM	5000 to 10000 nM
O=C1N[C@@H](c2cc(F)ccc2Cl)c2c(NC(=O)N3C[C@@H](C(F)F)c4ccccc43)cccc21 (single isomer, unassigned) [Compound I-2334]	≤ 100 nM	1000 to 5000 nM
O=C1NC(c2cc(F)ccc2C(F)F)c2c(NC(=O)N3CC(O)c4cc(F)ccc43)cc(Br)cc21 (centres unmarked) [Compound I-2257]	≤ 100 nM	1000 to 5000 nM
CC[C@@]1(O)CN(C(=O)Nc2cccc3c2[C@@H](c2cc(F)ccc2Cl)NC3=O)c2ccc(F)cc21 (single isomer, unassigned) [Compound I-2461]	≤ 100 nM	< 1000 nM
O=C1N[C@@H](c2cc(F)ccc2Cl)c2c(NC(=O)N3C[C@@](O)(C(F)F)c4ccccc43)cccc21 (single isomer, unassigned) [Compound I-2487]	≤ 100 nM	< 1000 nM
NC(=O)c1nc(-c2cc(NC(=O)c3cc(F)cc(C(F)(F)F)c3)c3c(c2)C(=O)NC3c2cc(F)ccc2Cl)cs1 (centres unmarked) [Compound I-1067]	≤ 100 nM	< 1000 nM
